For the test, the target named is Human neutrophil elastase (Homo sapiens (Human), UniProt P08246). Put plainly: Human Neutrophil Elastase Assay. Type of test: biochemical. The conditions noted are these: substrate MeOSuc-Ala-Ala-Pro-Val-AMC 250 μM, pH 7.5, fluorescence. As for the experimental part:
Human Neutrophil Elastase Assay
All other materials were of the highest grade commercially available.
The following buffers were used: Compound buffer: 100 mM Tris, 500 mM NaCl, adjusted to pH 7.5; Assay buffer: 100 mM Tris, 500 mM NaCl, adjusted to pH 7.5, containing 0.01% BSA.
Assay conditions: Test compounds were prediluted in DMSO and subsequently in compound buffer (5% DMSO final). […] After inactivation of the enzyme, fluorescence intensities were measured at 380 nm excitation and 460 nm emission wavelengths.
Each plate contains wells with a high value control (DMSO+enzyme+substrate) and wells with a low value control (DMSO+inactivated enzyme+substrate). IC50 values were estimated using a sigmoidal concentration response curve with variable slope. Means of low values were taken as 0%, means of high values as 100%. IC50 values of selected compound in the Neutrophil Elastase assay: […]
Sequence of Human neutrophil elastase (P08246 30-267): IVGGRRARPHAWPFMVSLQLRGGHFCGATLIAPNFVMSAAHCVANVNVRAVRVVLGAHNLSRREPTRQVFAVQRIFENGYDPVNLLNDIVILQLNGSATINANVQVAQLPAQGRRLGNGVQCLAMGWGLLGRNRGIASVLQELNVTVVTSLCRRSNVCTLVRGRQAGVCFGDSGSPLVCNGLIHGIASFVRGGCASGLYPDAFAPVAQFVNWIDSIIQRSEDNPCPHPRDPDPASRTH
For orientation: IC50 means the concentration at which inhibition is half-maximal. Read a low IC50 as greater potency in that assay. `Cc1c(-c2cccc(C(F)(F)F)c2)c(=O)c(C(=O)NCc2ccc(S(C)(=O)=O)cc2)cn1C1CCC1` [Example 7, 1-Cyclobutyl-6-methyl-4-oxo-5-(3-trifluoromethyl-phenyl)-1,4-dihydro-pyridine-3-carboxylic acid 4-methanesulfonyl-benzylamide] came in with an IC50 of 0.027 µM. For the compound `Cc1nnc(CNC(=O)c2cn(C3CCCC3)c(C)c(-c3cccc(C(F)(F)F)c3)c2=O)o1` [Example 8.1, 1-Cyclopentyl-6-methyl-4-oxo-5-(3-trifluoromethyl-phenyl)-1,4-dihydro-pyridine-3-carboxylic acid (5-methyl-[1,3,4]oxadiazol-2-ylmethyl)-amide], the IC50 is 0.043 µM. Next, `Cc1nnc(CNC(=O)c2cn(C3CCCC3)c(C)c(-c3cccc(C(F)F)c3)c2=O)o1` [Example 9.1, 1-Cyclopentyl-5-(3-difluoromethyl-phenyl)-6-methyl-4-oxo-1,4-dihydro-pyridine-3-carboxylic acid (5-methyl-[1,3,4]oxadiazol-2-ylmethyl)-amide]: 0.028 µM; `Cc1c(-c2cccc(C(F)F)c2)c(=O)c(C(=O)NCc2ccc(S(C)(=O)=O)cc2)cn1C1CCCC1` [Example 9.2, 1-Cyclopentyl-5-(3-difluoromethyl-phenyl)-6-methyl-4-oxo-1,4-dihydro-pyridine-3-carboxylic acid 4-methanesulfonyl-benzylamide]: 0.018 µM; `CCn1cc(C(=O)NCc2ccc(S(C)(=O)=O)cc2)c(=O)c(-c2cccc(C(F)F)c2)c1C` [Example 10, 5-(3-Difluoromethyl-phenyl)-1-ethyl-6-methyl-4-oxo-1,4-dihydro-pyridine-3-carboxylic acid 4-methanesulfonyl-benzylamide]: 0.029 µM.

As for `CC[C@@H](C)n1cc(C(=O)NCc2ccc(S(C)(=O)=O)cc2)c(=O)c(-c2cccc(C(F)F)c2)c1C` [Example 11.1, (R)-1-sec-Butyl-5-(3-difluoromethyl-phenyl)-6-methyl-4-oxo-1,4-dihydro-pyridine-3-carboxylic acid 4-methanesulfonyl-benzylamide], the IC50 is 0.008 µM.

`CC[C@@H](C)n1cc(C(=O)NCc2ccc(S(C)(=O)=O)cc2)c(=O)c(-c2ccnc(C(F)(F)F)c2)c1C` [Example 11.2, (R)-1-sec-Butyl-2-methyl-4-oxo-2′-trifluoromethyl-1,4-dihydro-[3,4]bipyridinyl-5-carboxylic acid 4-methanesulfonyl-benzylamide] returned an IC50 of 0.035 µM. Next, `CC[C@H](C)n1cc(C(=O)NCc2ccc(S(C)(=O)=O)cc2)c(=O)c(-c2cccc(C(F)(F)F)c2)c1C` [Example 12.1, (S)-1-sec-Butyl-6-methyl-4-oxo-5-(3-trifluoromethyl-phenyl)-1,4-dihydro-pyridine-3-carboxylic acid 4-methanesulfonyl-benzylamide]: 0.009 µM. Take `CC[C@H](C)n1cc(C(=O)NCc2ccc(S(C)(=O)=O)cc2)c(=O)c(-c2cccc(C(F)F)c2)c1C` [Example 12.2, (S)-1-sec-Butyl-5-(3-difluoromethyl-phenyl)-6-methyl-4-oxo-1,4-dihydro-pyridine-3-carboxylic acid 4-methanesulfonyl-benzylamide]: the IC50 was found to be 0.012 µM. Then `CC[C@H](C)n1cc(C(=O)NCc2ccc(S(C)(=O)=O)cc2)c(=O)c(-c2ccnc(C(F)(F)F)c2)c1C` [Example 12.3, (S)-1-sec-Butyl-2-methyl-4-oxo-2′-trifluoromethyl-1,4-dihydro-[3,4]bipyridinyl-5-carboxylic acid 4-methanesulfonyl-benzylamide], with 0.054 µM; and `CCC(CC)n1cc(C(=O)NCc2ccc(S(C)(=O)=O)cc2)c(=O)c(-c2cccc(C(F)F)c2)c1C` [Example 15.2, 5-(3-Difluoromethyl-phenyl)-1-(1-ethyl-propyl)-6-methyl-4-oxo-1,4-dihydro-pyridine-3-carboxylic acid 4-methanesulfonyl-benzylamide], with 0.008 µM.

`CCC(CC)n1cc(C(=O)NCc2ccc(S(C)(=O)=O)cc2)c(=O)c(-c2ccnc(C(F)(F)F)c2)c1C` [Example 15.3, 1-(1-Ethyl-propyl)-2-methyl-4-oxo-2′-trifluoromethyl-1,4-dihydro-[3,4]bipyridinyl-5-carboxylic acid 4-methanesulfonyl-benzylamide] showed an IC50 of 0.024 µM. `COCCn1cc(C(=O)NCc2ccc(S(C)(=O)=O)c[n+]2[O-])c(=O)c(-c2cccc(C(F)(F)F)c2)c1C` [Example 16, 1-(2-Methoxy-ethyl)-6-methyl-4-oxo-5-(3-trifluoromethyl-phenyl)-1,4-dihydro-pyridine-3-carboxylic acid (5-methanesulfonyl-1-oxy-pyridin-2-ylmethyl)-amide] returned an IC50 of 0.063 µM.

In turn, `Cc1c(-c2cccc(C(F)F)c2)c(=O)c(C(=O)NCc2ccc(S(C)(=O)=O)cn2)cn1C(C)C` [Example 17.2, 5-(3-Difluoromethyl-phenyl)-1-isopropyl-6-methyl-4-oxo-1,4-dihydro-pyridine-3-carboxylic acid (5-methanesulfonyl-pyridin-2-ylmethyl)-amide] gave a half-maximal inhibitory concentration (IC50) of 0.015 µM. Next, `Cc1c(-c2ccnc(C(F)(F)F)c2)c(=O)c(C(=O)NCc2ccc(S(C)(=O)=O)cn2)cn1C(C)C` [Example 17.3, 1-Isopropyl-2-methyl-4-oxo-2′-trifluoromethyl-1,4-dihydro-[3,4]bipyridinyl-5-carboxylic acid (5-methanesulfonyl-pyridin-2-ylmethyl)-amide]: 0.077 µM; `Cc1c(-c2cccc(C(F)(F)F)c2)c(=O)c(C(=O)NCc2ccc(S(C)(=O)=O)cn2)cn1C1CCC1` [Example 18.1, 1-Cyclobutyl-6-methyl-4-oxo-5-(3-trifluoromethyl-phenyl)-1,4-dihydro-pyridine-3-carboxylic acid (5-methanesulfonyl-pyridin-2-ylmethyl)-amide]: 0.032 µM. Next, `Cc1c(-c2cccc(C(F)F)c2)c(=O)c(C(=O)NCc2ccc(S(C)(=O)=O)cn2)cn1C1CCC1` [Example 18.2, 1-Cyclobutyl-5-(3-difluoromethyl-phenyl)-6-methyl-4-oxo-1,4-dihydro-pyridine-3-carboxylic acid (5-methanesulfonyl-pyridin-2-ylmethyl)-amide]: 0.035 µM; `CC[C@@H](C)n1cc(C(=O)NCc2ccc(S(C)(=O)=O)cn2)c(=O)c(-c2cccc(C(F)F)c2)c1C` [Example 19.2, (R)-1-sec-Butyl-5-(3-difluoromethyl-phenyl)-6-methyl-4-oxo-1,4-dihydro-pyridine-3-carboxylic acid (5-methanesulfonyl-pyridin-2-ylmethyl)-amide]: 0.01 µM. Then `CC[C@@H](C)n1cc(C(=O)NCc2ccc(S(C)(=O)=O)cn2)c(=O)c(-c2ccnc(C(F)(F)F)c2)c1C` [Example 19.3, (R)-1-sec-Butyl-2-methyl-4-oxo-2′-trifluoromethyl-1,4-dihydro-[3,4′]bipyridinyl-5-carboxylic acid (5-methanesulfonyl-pyridin-2-ylmethyl)-amide], with 0.04 µM; and `CC[C@H](C)n1cc(C(=O)NCc2ccc(S(C)(=O)=O)cn2)c(=O)c(-c2cccc(C(F)F)c2)c1C` [Example 20.2, (S)-1-sec-Butyl-5-(3-difluoromethyl-phenyl)-6-methyl-4-oxo-1,4-dihydro-pyridine-3-carboxylic acid (5-methanesulfonyl-pyridin-2-ylmethyl)-amide], with 0.011 µM. Compound `CC[C@H](C)n1cc(C(=O)NCc2ccc(S(C)(=O)=O)cn2)c(=O)c(-c2ccnc(C(F)(F)F)c2)c1C` [Example 20.3, (S)-1-sec-Butyl-2-methyl-4-oxo-2′-trifluoromethyl-1,4-dihydro-[3,4]bipyridinyl-5-carboxylic acid (5-methanesulfonyl-pyridin-2-ylmethyl)-amide] showed an IC50 of 0.063 µM.

For `COCCn1cc(C(=O)NCc2ccc(S(C)(=O)=O)cn2)c(=O)c(-c2cccc(C(F)(F)F)c2)c1C` [Example 21, 1-(2-Methoxy-ethyl)-6-methyl-4-oxo-5-(3-trifluoromethyl-phenyl)-1,4-dihydro-pyridine-3-carboxylic acid (5-methanesulfonyl-pyridin-2-ylmethyl)-amide], the 50% inhibitory concentration (IC50) was 0.043 µM. Next, `Cc1c(-c2cccc(C(F)(F)F)c2)c(=O)c(C(=O)NCc2ccc(S(C)(=O)=O)cn2)cn1C1CCOC1` (centres unmarked) [Example 22, 6-Methyl-4-oxo-1-(tetrahydro-furan-3-yl)-5-(3-trifluoromethyl-phenyl)-1,4-dihydro-pyridine-3-carboxylic acid (5-methanesulfonyl-pyridin-2-ylmethyl)-amide]: 0.027 µM; `CCC(CC)n1cc(C(=O)NCc2ccc(S(C)(=O)=O)cn2)c(=O)c(-c2cccc(C(F)(F)F)c2)c1C` [Example 23.1, 1-(1-Ethyl-propyl)-6-methyl-4-oxo-5-(3-trifluoromethyl-phenyl)-1,4-dihydro-pyridine-3-carboxylic acid (5-methanesulfonyl-pyridin-2-ylmethyl)-amide]: 0.012 µM.

In turn, `CCC(CC)n1cc(C(=O)NCc2ccc(S(C)(=O)=O)cn2)c(=O)c(-c2cccc(C(F)F)c2)c1C` [Example 23.2, 5-(3-Difluoromethyl-phenyl)-1-(1-ethyl-propyl)-6-methyl-4-oxo-1,4-dihydro-pyridine-3-carboxylic acid (5-methanesulfonyl-pyridin-2-ylmethyl)-amide] returned an IC50 of 0.005 µM.

The compound `CCC(CC)n1cc(C(=O)NCc2ccc(S(C)(=O)=O)cn2)c(=O)c(-c2ccnc(C(F)(F)F)c2)c1C` [Example 23.3, 1-(1-Ethyl-propyl)-2-methyl-4-oxo-2′-trifluoromethyl-1,4-dihydro-[3,4]bipyridinyl-5-carboxylic acid (5-methanesulfonyl-pyridin-2-ylmethyl)-amide] yielded an IC50 of 0.046 µM.

Source of the values: patent US9340507B2, “Substituted 4-pyridones and their use as inhibitors of neutrophil elastase activity” (Boehringer Ingelheim International GmbH, priority 2012, dated 2016).
